IC50 data for three compounds are collected here from patent publication US4775695A, “Substituted amidinoalkoxy and amidinoalkylamino indanones and salts thereof” (Merck & Co., Inc., priority 1987, dated 1988).

The experiment has as its system cerebrocortical cat brain tissue slices. Put plainly: In vitro Cerebrocortical Cat Brain Tissue Slice Assay (inhibition of HCO3^- -stimulated swelling). To be noted: 60 minutes, 37° C., 10 mM HCO3^-, 27 mM K^+. The method, then:
See, e.g., Bourke et al., Neurochem. Res., 8, 5 (1983), and Cragoe et al., J. Med. Chem., 25, 567 (1982).
Adult cats of 2-3 kg body weight were employed in tissue slice studies. Prior to sacrifice, the animals were anesthetized with ketamine hydrochloride, 10 mg/kg intramuscularly. Eight (three control, five experimental) pial surface cerebrocortical tissue slices (0.5 mm thick; approximately 150 mg initial fresh weight) were cut successively with a calibrated Stadie-Riggs fresh tissue microtome without moistening and weighed successively on a torsion balance. During the slice preparation all operations except weighing were confined to a humid chamber. Each slice was rapidly placed in an individual Warburg flask containing 2 ml of incubation medium at room temperature. The basic composition of the incubation media was as follows: glucose, 10 mM; CaCl2, 1.3 mM; MgSO4, 1.2 mM; KHSO4, 1.2 mM; HEPES (N-2-hydroxyethylpiperazine-N'-2-ethanesulfonic acid, titrated with NaOH to pH 7.4), 20 mM. Except when adding HCO3^-, the osmolarity of the media was maintained isosmotic (approximately 285 mOsm/L) by reciprocal changes of Na^+ or K^+ to achieve a concentration of K^+ of 27 mM. The basic medium was saturated with oxygen by bubbling pure oxygen through the solution for 30 minutes before use. […]
Following the 60-minute incubation period, tissue slices were separated from incubation medium by filtration, reweighed, and homogenized in 1N HClO4 (10% w/v) for electrolyte analysis. […] Control slice swelling is expressed as microliters per gram initial preswelling fresh weight. The effectiveness of an inhibitor at a given concentration was measured by the amount of HCO3^- -stimulated swelling that occurred in its presence, computed as a percent of the maximum possible and is reported as an IC50. […] Tissue and media Na^+ and K^+ levels were determined by emission flame photometry with Li^+ internal standard; Cl^- levels were determined by amperometric titration. Tissue viability during incubation is monitored by manometry.

Each structure is given as a SMILES string. Where a name gives a salt, the structure may show the parent alone.

For `CC1(C2CCCC2)Cc2cc(OCC(=N)N)c(Cl)c(Cl)c2C1=O` (stereo not drawn) [Example 2, [(2-Cyclopentyl-6,7-dichloro-2,3-dihydro-2-methyl-1-oxo-1H-inden-5-yl)oxy]ethanimidamide hydrochloride hemihydrate], half-maximal inhibition (Felis catus, 1 h) (IC50) required 10 nM. With `CC1(C2CCCC2)Cc2cc(OCC(=N)N)c(Cl)c(Cl)c2C1=O` (single isomer, unassigned; (+)) [Example 6, (+)[(2-Cyclopentyl-6,7-dichloro-2,3-dihydro-2-methyl-1-oxo-1H-inden-5-yl)oxy]ethanimidamide hydrochloride 1/4 hydrate], under “hydrate”, it took 100 nM to reach half-maximal inhibition (IC50). `CC1(C2CCCC2)Cc2cc(OCC(=N)N)c(Cl)c(Cl)c2C1=O` (single isomer, unassigned; (-)) [Example 7, (-)[(2-Cyclopentyl-6,7-dichloro-2,3-dihydro-2-methyl-1-oxo-1H-inden-5-yl)oxy]ethanimidamide hydrochloride 1/4 hydrate]: where the note is “hydrate”, the IC50 – broadly, the concentration needed to halve the response being measured – is 5 nM.
